The source of these data is ChEMBL document CHEMBL4043266, “Pentacyclic triterpenes as α-glucosidase and α-amylase inhibitors: Structure-activity relationships and the synergism with acarbose” (Bioorg Med Chem Lett, 2017).

The target of one assay is T1, Pancreatic alpha-amylase (Sus scrofa, UniProt P00690).
T1 sequence (P00690 whole entry): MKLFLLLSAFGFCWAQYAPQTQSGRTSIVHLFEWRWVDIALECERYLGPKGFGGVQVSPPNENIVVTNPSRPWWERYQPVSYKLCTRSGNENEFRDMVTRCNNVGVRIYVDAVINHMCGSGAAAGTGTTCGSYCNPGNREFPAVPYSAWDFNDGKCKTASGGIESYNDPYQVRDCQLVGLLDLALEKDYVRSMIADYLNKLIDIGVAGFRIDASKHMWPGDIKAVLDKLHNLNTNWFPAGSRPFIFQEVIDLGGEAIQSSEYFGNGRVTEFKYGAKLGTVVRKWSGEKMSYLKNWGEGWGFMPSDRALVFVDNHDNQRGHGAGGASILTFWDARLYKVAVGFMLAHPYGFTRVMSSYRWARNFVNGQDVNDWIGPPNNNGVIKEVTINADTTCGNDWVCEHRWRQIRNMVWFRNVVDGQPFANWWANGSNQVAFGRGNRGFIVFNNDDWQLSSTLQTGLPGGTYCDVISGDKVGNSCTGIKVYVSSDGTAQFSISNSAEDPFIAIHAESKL
Description: Inhibition of porcine pancreatic alpha-amylase using starch as substrate preincubated for 15 mins followed by substrate addition measured after 10 mins by dinitrosalicylic acid reagent based assay.

Assay [1] is described as follows: Inhibition of yeast alpha-glucosidase using 4-nitrophenyl-alpha-D-glucopyranoside as substrate preincubated for 15 mins followed by substrate addition measured after 20 mins. Also on record: species or system Saccharomyces cerevisiae.

The term IC50 denotes the concentration that inhibits the measured activity by half. Read a low IC50 as greater potency. Regarding `C[C@H]1[C@H](C)CC[C@]2(C(=O)O[C@@H]3O[C@H](CO[C@@H]4O[C@H](CO)[C@@H](O[C@@H]5O[C@@H](C)[C@H](O)[C@@H](O)[C@H]5O)[C@H](O)[C@H]4O)[C@@H](O)[C@H](O)[C@H]3O)CC[C@]3(C)C(=CC[C@@H]4[C@@]5(C)C[C@@H](O)[C@H](O)[C@@](C)(CO)[C@@H]5CC[C@]43C)[C@H]12`, the IC50 (at Pancreatic alpha-amylase; in assay [1]) was greater than 200 µM in each case.

For the compound `C[C@H]1[C@H](C)CC[C@]2(C(=O)O)CC[C@]3(C)C(=CC[C@@H]4[C@@]5(C)C[C@@H](O)[C@H](O)[C@@](C)(CO)[C@@H]5CC[C@]43C)[C@H]12` [ASIATIC ACID], the IC50 on Pancreatic alpha-amylase was greater than 200 µM; in assay [1], 100 µM. As for `C[C@H]1[C@H](C)CC[C@]2(C(=O)O)CC[C@]3(C)C(=CC[C@@H]4[C@@]5(C)CC[C@H](O)C(C)(C)[C@@H]5CC[C@]43C)[C@H]12` [URSOLIC ACID], in assay [1], the IC50 came out at 12.1 µM. For the compound `C=C(C)[C@@H]1CC[C@]2(CO)CC[C@]3(C)[C@H](CC[C@@H]4[C@@]5(C)CC[C@H](O)C(C)(C)[C@@H]5CC[C@]43C)[C@@H]12` [BETULIN], the IC50 is greater than 200 µM on Pancreatic alpha-amylase and 52.5 µM in assay [1]. Take `CC1(C)[C@@H](O[C@H]2O[C@H](C(=O)O)[C@@H](O)[C@H](O)[C@H]2O[C@@H]2O[C@H](C(=O)O)[C@@H](O)[C@H](O)[C@H]2O)CC[C@]2(C)[C@H]3C(=O)C=C4[C@@H]5C[C@@](C)(C(=O)O)CC[C@]5(C)CC[C@@]4(C)[C@]3(C)CC[C@@H]12` [GLYCYRRHIZIN]: the IC50 (against Pancreatic alpha-amylase; in assay [1]) was greater than 200 µM each time. Consider `C[C@H]1O[C@H](O[C@H]2[C@H](O)[C@@H](O)[C@@H](O[C@H]3[C@H](O)[C@@H](O)C(O)O[C@@H]3CO)O[C@@H]2CO)[C@H](O)[C@@H](O)[C@@H]1N[C@H]1C=C(CO)[C@@H](O)[C@H](O)[C@H]1O` (some centres not stated) [ACARBOSE], for which the IC50 in assay [1] amounted to 2480 µM.

As for `C=C(C)[C@@H]1CC[C@]2(C(=O)O)CC[C@]3(C)[C@H](CC[C@@H]4[C@@]5(C)CC[C@H](O)C(C)(C)[C@@H]5CC[C@]43C)[C@@H]12` [BETULINIC ACID], the IC50 against Pancreatic alpha-amylase is greater than 200 µM; in assay [1] it was 14.9 µM. The corresponding values for `C[C@H]1[C@H](C)CC[C@]2(C(=O)O)CC[C@]3(C)C(=CC[C@@H]4[C@@]5(C)C[C@@H](O)[C@H](O)C(C)(C)[C@@H]5CC[C@]43C)[C@H]12` [COROSOLIC ACID] are 31.2 µM and 17.2 µM. In the case of `CC1(C)CC[C@]2(C(=O)O)CC[C@]3(C)C(=CC[C@@H]4[C@@]5(C)CC[C@H](O)C(C)(C)[C@@H]5CC[C@]43C)[C@@H]2C1` [OLEANOLIC_ACID], the IC50 in assay [1] came to 35.6 µM. As to `CC1(C)[C@@H](O)CC[C@]2(C)[C@H]3C(=O)C=C4[C@@H]5C[C@@](C)(C(=O)O)CC[C@]5(C)CC[C@@]4(C)[C@]3(C)CC[C@@H]12` [ENOXOLONE], the IC50 (against Pancreatic alpha-amylase; in assay [1]) was greater than 200 µM in each case.
